ChEMBL document CHEMBL4251622, “Design, synthesis, and biological evaluation of polo-like kinase 1/eukaryotic elongation factor 2 kinase (PLK1/EEF2K) dual inhibitors for regulating breast cancer cells apoptosis and autophagy” (Eur J Med Chem, 2018)
pIC50: −log10 of the molar value. Calls of active or inactive are those of the source. The calls are words filed in the database; no cut-off is given here.

Legend:
[1] = biological target: Receptor-interacting serine/threonine-protein kinase 1 (Homo sapiens) (UniProt Q13546); assay: Inhibition of wild-type human partial length RIPK1 (M1 to K305 residues) expressed in bacterial expression system assessed as residual activity at 1 uM by Kinomescan method relative to control
[2] = biological target: Cyclin-dependent kinase 19 (Homo sapiens) (UniProt Q9BWU1); assay: Inhibition of wild-type human partial length CDK11 (M1 to N360 residues) expressed in bacterial expression system assessed as residual activity at 1 uM by Kinomescan method relative to control
MDA-MB-468 = assay: Cytotoxicity against human MDA-MB-468 cells after 24 hrs by MTT assay; assay type: functional, cell-based
[3] = biological target: Mitogen-activated protein kinase 14 (Homo sapiens) (UniProt Q16539); assay: Inhibition of wild-type human full length p38-alpha (M1 to S360 residues) expressed in bacterial expression system assessed as residual activity at 1 uM by Kinomescan method relative to control
[4] = biological target: Aurora kinase A (Homo sapiens) (UniProt O14965); assay: Inhibition of wild-type human partial length AURKA (E122 to K401 residues) expressed in mammalian expression system assessed as residual activity at 1 uM by Kinomescan method relative to control
[5] = biological target: Eukaryotic elongation factor 2 kinase (Homo sapiens, UniProt O00418); assay: Inhibition of GST-tagged EEF2K (unknown origin) using biotinylated EEF2 peptide substrate by HTRF assay
MCF7 = assay: Cytotoxicity against human MCF7 cells after 24 hrs by MTT assay; assay type: functional, cell-based; conditions: MCF7, 24 h
BT-483 [6] = assay: Upregulation of cleaved caspase-3 protein expression in human BT-483 cells at 5 to 10 uM by Western blot analysis; assay type: functional, cell-based
[7] = system: Epidermal growth factor receptor (Homo sapiens), P00533 [L858R]; assay: Inhibition of human partial length EGFR L858R mutant (R669 to V1011 residues) expressed in bacterial expression system assessed as residual activity at 1 uM by Kinomescan method relative to control
MDA-MB-231 = assay: Cytotoxicity against human MDA-MB-231 cells after 24 hrs by MTT assay; assay type: functional, cell-based
[8] = biological target: SRSF protein kinase 3 (Homo sapiens) (UniProt Q9UPE1); assay: Inhibition of wild-type human partial length SRPK3 (P41 to P567 residues) expressed in bacterial expression system assessed as residual activity at 1 uM by Kinomescan method relative to control
BT-483 [9] = assay: Induction of autophagy in human BT-483 cells transfected with GFP-fused LC3 assessed as aggregation of GFP-LC3 punctures after 6 hrs by DAPI staining based assay; assay type: functional, cell-based
BT-483 [10] = assay: Induction of apoptosis in human BT-483 cells assessed as late apoptotic cells at 5 uM by Annexin V-FITC/propidium iodide staining based flow cytometry (reference value: 0.36%); assay type: functional
[11] = biological target: Serine/threonine-protein kinase pim-1 (Homo sapiens) (UniProt P11309); assay: Inhibition of wild-type human partial length PIM1 (A15 to K313 residues) expressed in bacterial expression system assessed as residual activity at 1 uM by Kinomescan method relative to control
[12] = biological target: Epidermal growth factor receptor (Homo sapiens) (UniProt P00533); assay: Inhibition of wild-type human partial length EGFR (R669 to V1011 residues) expressed in bacterial expression system assessed as residual activity at 1 uM by Kinomescan method relative to control
[13] = biological target: Death-associated protein kinase 1 (Homo sapiens) (UniProt P53355); assay: Inhibition of wild-type human partial length DAPK1 (M1 to F296 residues) expressed in bacterial expression system assessed as residual activity at 1 uM by Kinomescan method relative to control
[14] = biological target: Hepatocyte growth factor receptor (Homo sapiens) (UniProt P08581); assay: Inhibition of wild-type human partial length MET (D1010 to S1367 residues) expressed in bacterial expression system assessed as residual activity at 1 uM by Kinomescan method relative to control
[15] = biological target: Platelet-derived growth factor receptor beta (Homo sapiens) (UniProt P09619); assay: Inhibition of wild-type human partial length PDGFRB (V582 to Y1009 residues) expressed in bacterial expression system assessed as residual activity at 1 uM by Kinomescan method relative to control
[16] = biological target: Casein kinase I isoform delta (Homo sapiens) (UniProt P48730); assay: Inhibition of wild-type human full length CSNK1D (M1 to K409 residues) expressed in bacterial expression system assessed as residual activity at 1 uM by Kinomescan method relative to control
[17] = biological target: Platelet-derived growth factor receptor alpha (Homo sapiens) (UniProt P16234); assay: Inhibition of wild-type human partial length PDGFRA (V575 to D1002 residues) expressed in mammalian expression system assessed as residual activity at 1 uM by Kinomescan method relative to control
[18] = biological target: Serine/threonine-protein kinase ULK1 (Homo sapiens) (UniProt O75385); assay: Inhibition of wild-type human partial length ULK1 (M1 to T309 residues) expressed in mammalian expression system assessed as residual activity at 1 uM by Kinomescan method relative to control
[19] = biological target: RAC-beta serine/threonine-protein kinase (Homo sapiens) (UniProt P31751); assay: Inhibition of wild-type human partial length AKT2 expressed in bacterial expression system assessed as residual activity at 1 uM by Kinomescan method relative to control
[20] = biological target: Phosphatidylinositol 4-phosphate 3-kinase C2 domain-containing subunit beta (Homo sapiens) (UniProt O00750); assay: Inhibition of wild-type human partial length PIK3C2B (M1 to L1634 residues) expressed in mammalian expression system assessed as residual activity at 1 uM by Kinomescan method relative to control
BT-483 [21] = assay: Upregulation of Bax protein expression in human BT-483 cells at 5 to 10 uM by Western blot analysis; assay type: functional, cell-based
BT-483 [22] = assay: Effect on caspase-8 protein expression in human BT-483 cells at 5 to 10 uM by Western blot analysis; assay type: functional, cell-based
[23] = biological target: MAP kinase-interacting serine/threonine-protein kinase 1 (Homo sapiens) (UniProt Q9BUB5); assay: Inhibition of wild-type human full length MKNK1 (M1 to L424 residues) expressed in mammalian expression system assessed as residual activity at 1 uM by Kinomescan method relative to control
[24] = biological target: Tyrosine-protein kinase ZAP-70 (Homo sapiens) (UniProt P43403); assay: Inhibition of wild-type human partial length ZAP70 (D20 to G299 residues) expressed in mammalian expression system assessed as residual activity at 1 uM by Kinomescan method relative to control
[25] = biological target: Serine/threonine-protein kinase B-raf (Homo sapiens) (UniProt P15056); assay: Inhibition of wild-type human partial length BRAF (S429 to E741 residues) expressed in mammalian expression system assessed as residual activity at 1 uM by Kinomescan method relative to control
[26] = biological target: Casein kinase I isoform gamma-2 (Homo sapiens) (UniProt P78368); assay: Inhibition of wild-type human full length CSNK1G2 (M1 to K415 residues) expressed in bacterial expression system assessed as residual activity at 1 uM by Kinomescan method relative to control
BT-474 = assay: Cytotoxicity against human BT474 cells after 24 hrs by MTT assay; assay type: functional, cell-based

CCNc1cc(-c2ccc(NC(=O)Nc3cccc(Cl)c3)cc2C(F)(F)F)ccn1
Activity [1]: 62%
Activity [2]: 89%
Activity (MDA-MB-468): Active
Activity [3]: 84%
Activity [4]: 100%
pIC50 [5]: 6.12
pIC50 (MCF7): 5.91
Activity (BT-483 [6]): Active
Activity [7]: 99%
Activity (MDA-MB-231): Active
Activity [8]: 98%
Activity (BT-483 [9]): Active
Activity (BT-483 [10]): 6.67%
Activity [11]: 66%
Activity [12]: 90%
Activity [13]: 93%
Activity [14]: 73%
Activity [15]: 83%
Activity [16]: 86%
Activity [17]: 79%
Activity [18]: 62%
Activity [19]: 80%
Activity [20]: 97%
Activity (BT-483 [21]): Active
Activity (BT-483 [22]): inactive
Activity [23]: 81%
Activity [24]: 71%
Activity [25]: 93%
Activity [26]: 90%
Activity (BT-474): Active
